The record followed here is US10912761B2, “Methods and compositions involving RAD51 inhibitors” (The University of Chicago, priority 2012, dated 2021).

SMILES strings stand for the structures. “Also recorded” adds a separate entry of the source.

Data set [1] can be described thus: Glutathione stability experiments (HPLC). Type of data set: physicochemical. The conditions noted are these: L-glutathione 5 mol equiv, DMSO, 37° C., hourly HPLC; up to 24 hours. The procedure:
FIG. 1. Reaction of RI-1, RI-2, and 9b with glutathione. Glutathione is a tripeptide that contains a nucleophilic sulfhydryl group. Glutathione may react irreversibly with a Michael acceptor compound containing a suitable leaving group at the 4-position.
Compound (10 mg) and L-glutathione (5 mol equiv) were placed in a round-bottomed flask under argon and dissolved in DMSO (1 mL). The reaction was heated to 37° C. and stirred. Aliquots of the reaction mixture were removed every hour, including one at t=0 min, and analyzed by HPLC. Ratio of substrate and glutathione adduct was recorded and the expected glutathione adduct was then identified using mass spectrometry

The subject of the next data set is immortalized human cells. As to the kind of experiment: MMP-1-60 toxicity to immortalized human cells with or without pre-incubation in media. Type of data set: cell-based. The conditions noted are these: 4 hours of pre-incubation with tissue culture media vs. no pre-incubation. As to the method: FIGS. 6A-6B: A. ssDNA binding activity of RAD51 in response to RAD51 antagonists. […] B. MMP-1-60 toxicity to immortalized human cells.
HEK293 cells were plated into 96-well tissue culture plates at a density of 300 cells per well in the presence or absence of 50 nM MMC (Ben Venue Laboratories) for 24 hours at 37° C., 5% CO2. Media was subsequently replaced with fresh media containing 0.5% DMSO plus a candidate compound for an additional 24 hours. Compounds were then removed, and cultures were allowed to grow to a 50-70% confluence. Average survival from at least three replicates was measured using CellGlo reagent (Promega) or via a previously described sulforhodamine B method (Jayathilaka et al., 2008).

Data set [2] deals with T1, human RAD51 protein (Homo sapiens, UniProt Q06609).
T1 sequence (Q06609 1-339): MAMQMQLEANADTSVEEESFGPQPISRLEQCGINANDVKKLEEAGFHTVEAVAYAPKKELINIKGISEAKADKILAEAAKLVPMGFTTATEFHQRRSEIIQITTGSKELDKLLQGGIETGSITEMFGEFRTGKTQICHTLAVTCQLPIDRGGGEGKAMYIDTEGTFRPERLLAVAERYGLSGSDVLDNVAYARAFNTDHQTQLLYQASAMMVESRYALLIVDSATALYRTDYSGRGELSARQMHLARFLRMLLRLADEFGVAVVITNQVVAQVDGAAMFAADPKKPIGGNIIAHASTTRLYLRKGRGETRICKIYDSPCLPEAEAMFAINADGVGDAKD
As to the kind of experiment: FP-based DNA binding assay (RAD51 binding to fluorescently labeled ssDNA). On the set-up: made in house. The format is biochemical. The note with it: for time dependence of inhibitory activity on the DNA binding activity of RAD51: compound added after the protein has been released from the beads (FIG. 2B). As to the method: The synthesized compounds were tested for biological activity in a two-stage manner. They were first evaluated for their ability to inhibit the binding of human RAD51 protein to ssDNA. This primary assay utilizes a fluorescence polarization (FP) based method that involves incubation of purified RAD51 protein with oligonucleotides, which are end-labeled with a fluorescent tag. The binding of RAD51 to this substrate ssDNA is quantified as a function of polarization of light emitted by the fluorescent tag. Chemical analogs were then tested further using secondary cell-based assays. Since cell lethality from RI-1 is thought to be a function of cellular RAD51 inhibition for RI-1, LD50 values were used as a surrogate measurement of in vivo activity against RAD51 in cells. This cell-based assay was also simultaneously utilized to evaluate for compound-induced sensitization of cells to the cross-linking chemotherapeutic drug MMC, thereby confirming that toxic effects are secondary to HR inhibition.
Human RAD51 protein was prepared as previously described (Budke et al., 2012). RAD51 was incubated with 100 nM (nucleotide concentration) of a 45-mer oligo-dT 5′ Alexa 488 end-labeled substrate. Binding was measured as a function of fluorescence polarization (FP) of the Alexa 488 tag. 50 μl reactions were performed in 20 mM HEPES, pH 7.5, 2 mM ATP, 10 mM MgCl2, 30 mM NaCl, 2% glycerol, 250 μM BSA, and 4% DMSO. Black polystyrene flat-bottom 384-well reaction plates were read using a Tecan Infinite F200 Pro plate reader, equipped with 485(20)/535(25) FP filters. For experiments used to determine IC50 values, RAD51 concentrations (typically 190-290 nM) were selected to generate FP signal of 50-80% maximum in the absence of any inhibitory compound. Reported IC50 values represent the mean result of at least three replicate wells, and reported errors connote standard deviation.

The target of data set [3] is T1, human RAD51 protein. Briefly: DNA binding competition assay: bead-immobilized RAD51 treated with compound, washed, cleaved, tested by FP (reversible vs. irreversible inhibition). The conditions noted are these: washed extensively, protein cleaved from beads (FIG. 2C).
Protocol: Reversible vs. irreversible inhibition of RAD51 by compound was tested by incubating compounds with RAD51 while still attached to beads and prior to washing. […] Reversible vs. irreversible inhibition of RAD51. Biotinylated RAD51 was immobilized on streptavidin polyacrylamide beads. The RAD51-coated beads were incubated with compound and subsequently washed extensively to remove any compound that was not covalently attached. The treated protein was subsequently cleaved from the beads and tested for DNA binding activity using our standard FP-based assay.
Tagged RAD51 was immobilized on streptavidin-conjugated polyacrylamide beads (Ultralink, Pierce) and incubated for 30 min at 37° C. with candidate compounds in 20 mM HEPES, pH 7.5, 30 mM NaCl, 2% glycerol, 4% DMSO. The polyacrylamide beads were then washed twice with ice-cold wash buffer (20 mM Tris-HCl, pH 8.0, 300 mM NaCl) containing 4% DMSO and then once with ice-cold wash buffer without DMSO. RAD51 protein was subsequently eluted from beads with TEV protease (gift from Phoebe Rice) and analyzed for DNA binding activity using the above FP-based DNA binding assay.
The test system of data set [4] is HR repair in HEK293 cells (DR-GFP reporter). As to the kind of experiment: Quantification of HR efficiency in DR-GFP reporter cells. The conditions noted are these: 24 hours. The format is cell-based, human. The procedure: (§1) FIG. 3. Relative DNA repair efficiencies. […] Reporter-containing HEK293 cells were electroporated with an I-SceI endonuclease-expressing plasmid, incubated with compounds as indicated for 24 hours, and subjected to FACS analysis 24 hours thereafter. […] The reporter construct that measures HR repair consists of two non-functional copies of green fluorescence protein (GFP), one of which is interrupted by an I-SceI endonuclease site. Induction of a DNA break at the I-SceI site can lead to repair by homologous gene conversion that generates a functional copy of GFP (Pierce et al., 1999). A second parallel assay makes use of cells that contain a different reporter that measures single-strand annealing (SSA), which is an alternative method of re-ligating DNA when HR cannot be completed. SSA efficiency is known to be elevated in situations where RAD51 function has been disrupted (Mansour et al., 2008, Stark et al., 2004, and Bennardo et al., 2008). […] HEK293 cells stably transfected with the DR-GFP or SA-GFP reporters were provided by Jeremy Stark (Bennardo et al., 2008). 0.5-1.0×10^7 cells at 80% confluence were electroporated with 30-60 μg pCβASce (or pCAGGS) in 4 mm cuvettes, using the following settings: 240-350 V, 975 μF. […] Compounds were removed and cells were incubated for an additional 24 hours in normal media, following which they were analyzed with a Becton-Dickinson FACScan. […]

Data set [5] relates to SSA in HEK293 cells (SA-GFP reporter). Briefly: Quantification of SSA efficiency in SA-GFP reporter cells. The format is cell-based, human. The note with it: 24 hours. The procedure:
as §1

In the next data set the test system is HEK293 cells. As to the kind of experiment: Cell toxicity assay: sensitization to MMC. Type of data set: cell-based, human. The note with it: 24 hours MMC, then 24 hours compound, 5-7 days drug-free.

As for `O=C1C(I)=C(N2CCOCC2)C(=O)N1c1ccc(Cl)c(Cl)c1` [Compound 9b, 1-(3,4-Dichlorophenyl)-3-iodo-4-morpholino-1H-pyrrole-2,5-dione], the reaction with glutathione entry in data set [1] is reported as “no detectable compound at the first time point measured”.
Take `COc1ccc(C2=C(SCCN(C)C)C(=O)N(c3ccc(Cl)c(Cl)c3)C2=O)cc1` [MMP-1-60, 1-(3,4-dichlorophenyl)-3-((2-(dimethylamino)ethyl)thio)-4-(4-methoxyphenyl)-1H-pyrrole-2,5-dione]: the “cell toxicity with vs. without pre-incubation (stability)” value with immortalized human cells was “comparable cell toxicity”. Besides, the “RAD51 inhibitory activity (ssDNA binding), relative” value at human RAD51 protein [2] (FIG. 6A) was “intermediate to RI-1 and RI-2”.
In the case of `O=C1C(Cl)=C(N2CCOCC2)C(=O)N1c1ccc(Cl)c(Cl)c1` [RI-1, 1-(3,4-Dichlorophenyl)-3-chloro-4-morpholino-1H-pyrrole-2,5-dione, reference compound], at human RAD51 protein [3] (10 μM compound), the “DNA binding activity of RAD51 treated with compound prior to washing” value is “significantly inactivated”. Besides, in data set [4] (20 μM), the HR repair efficiency entry is on record as “inhibition of HR”. The reaction with glutathione result in data set [1] was “reduced glutathione reactivity”. Besides, in data set [5] (20 μM), the SSA efficiency entry is “stimulation of SSA”. Moreover, at human RAD51 protein [2], the “time dependence of inhibitory activity on the DNA binding activity of RAD51” value was “time-dependent”.
As for `COc1ccc(C2=C(N3CCOCC3)C(=O)N(c3ccc(Cl)c(Cl)c3)C2=O)cc1` [RI-2, 1-(3,4-Dichloro-phenyl)-3-(4-methoxy-phenyl)-4-morpholin-4-yl-pyrrole-2,5-dione], in the data set on HEK293 cells, the “sensitization to cross-linking chemotherapy (MMC)” value is “sensitizes human cells to cross-linking chemotherapy”. Besides, the “DNA binding activity of RAD51 treated with compound prior to washing” value at human RAD51 protein [3] (concentrations up to 240 μM) is given as “no measurable loss of DNA binding activity”. Also, in data set [4] (60 μM), the HR repair efficiency entry is listed as “very similar effects; also recorded: inhibition of HR”. Moreover, the reaction with glutathione entry in data set [1] is reported as “no reactivity toward glutathione”. The SSA efficiency result in data set [5] (60 μM) is “very similar effects; also recorded: stimulation of SSA”. Further, the IC50 (usually the point on the concentration scale where inhibition reaches its midpoint) at human RAD51 protein [2] (RAD51 binding to ssDNA, FP, read-out: IC50 in the standard DNA binding assay) stood at 44.2 µM. The “time dependence of inhibitory activity on the DNA binding activity of RAD51” value at human RAD51 protein [2] is “no time-dependent increase”.
